Values quoted from earlier work in patent US20130136752A1, “Ophthalmic Formulations” (OXIGENE, INC., priority 2010, published 2013).

Assays:
[1] = test system: vessels with anomalous structure
[2] = test system: choroidal neovascularization (CNV); conditions: rho/VEGF mice, P7 to P21

In the case of `COc1ccc(/C=C\c2cc(OC)c(OC)c(OC)c2)cc1OP(=O)(O)O` [CA4P, combretastatin A4 phosphate], the “systemic dose levels disrupting aberrant vessels” value ([1]; aberrant vessels induced by overexpression of VEGF or by exposure to elevated oxygen) is given as 3 to 4 mg/kg, the “systemic dose level required for normal immature vessels” value ([1]; normal immature vessels induced by burn injury) is given as 75 mg/kg and the “neovascular lesions at P21” value ([2]; 2.2 mg/kg daily IP) is given as “numerous neovascular lesions”. For the same molecule, the “number of neovascular lesions and total area of neovascularization per retina versus vehicle” value ([2]; 4.0 mg/kg daily IP) was “significant reduction”.
